Test results from ChEMBL document CHEMBL1201862, “PubChem BioAssay data set” (2004).
Activity calls are given as the source filed them.

How the values were obtained:
Hexokinase HKDC1 = target: T1, Hexokinase HKDC1 (Homo sapiens, UniProt Q2TB90); experiment: HKDC1 hexokinase activators, dose response, biochemical, W721R variant (AID 504730); format: functional
T1 sequence (Q2TB90 whole entry): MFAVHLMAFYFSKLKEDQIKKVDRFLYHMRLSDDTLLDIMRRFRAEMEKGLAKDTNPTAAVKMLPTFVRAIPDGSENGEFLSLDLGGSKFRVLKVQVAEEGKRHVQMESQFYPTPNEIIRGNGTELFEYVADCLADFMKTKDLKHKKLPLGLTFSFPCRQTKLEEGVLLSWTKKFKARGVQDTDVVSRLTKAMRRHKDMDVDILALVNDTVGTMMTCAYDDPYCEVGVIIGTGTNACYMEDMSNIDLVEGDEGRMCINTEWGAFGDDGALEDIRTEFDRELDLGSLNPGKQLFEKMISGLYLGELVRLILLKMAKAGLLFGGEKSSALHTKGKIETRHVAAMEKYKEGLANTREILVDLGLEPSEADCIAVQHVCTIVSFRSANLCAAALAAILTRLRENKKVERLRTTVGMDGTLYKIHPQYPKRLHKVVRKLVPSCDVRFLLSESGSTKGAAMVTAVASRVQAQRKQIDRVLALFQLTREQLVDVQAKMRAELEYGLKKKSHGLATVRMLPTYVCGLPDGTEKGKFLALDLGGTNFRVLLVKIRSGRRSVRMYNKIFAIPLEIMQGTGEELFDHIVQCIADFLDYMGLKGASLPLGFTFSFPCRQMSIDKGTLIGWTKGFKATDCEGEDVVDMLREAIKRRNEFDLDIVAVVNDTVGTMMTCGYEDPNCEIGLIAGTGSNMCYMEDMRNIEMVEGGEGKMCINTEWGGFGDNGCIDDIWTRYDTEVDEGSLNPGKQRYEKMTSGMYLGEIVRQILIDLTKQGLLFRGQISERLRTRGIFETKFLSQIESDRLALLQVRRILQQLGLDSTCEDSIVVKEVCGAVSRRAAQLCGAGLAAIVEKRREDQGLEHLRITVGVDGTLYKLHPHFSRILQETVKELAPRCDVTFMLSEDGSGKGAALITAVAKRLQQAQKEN

Nonstructural protein 1 = Nonstructural protein 1 (Influenza A virus, UniProt Q194T2); format: functional, Influenza A virus (A/California/07/2009(H1N1))
Chain of Nonstructural protein 1 (Q194T2 whole entry): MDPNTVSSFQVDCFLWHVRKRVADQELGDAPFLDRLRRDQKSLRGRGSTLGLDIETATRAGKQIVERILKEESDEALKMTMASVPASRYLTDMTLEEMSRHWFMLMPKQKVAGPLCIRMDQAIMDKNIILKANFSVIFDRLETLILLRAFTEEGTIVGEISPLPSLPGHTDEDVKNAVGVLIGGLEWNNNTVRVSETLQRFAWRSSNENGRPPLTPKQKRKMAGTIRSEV

Hexokinase-1 = Hexokinase-1 (Homo sapiens, UniProt P19367); experiment: hexokinase 1 activators, dose response, selectivity assay for HKDC1 activator project, biochemical (AID 504762); format: functional
Chain of Hexokinase-1 (P19367 whole entry): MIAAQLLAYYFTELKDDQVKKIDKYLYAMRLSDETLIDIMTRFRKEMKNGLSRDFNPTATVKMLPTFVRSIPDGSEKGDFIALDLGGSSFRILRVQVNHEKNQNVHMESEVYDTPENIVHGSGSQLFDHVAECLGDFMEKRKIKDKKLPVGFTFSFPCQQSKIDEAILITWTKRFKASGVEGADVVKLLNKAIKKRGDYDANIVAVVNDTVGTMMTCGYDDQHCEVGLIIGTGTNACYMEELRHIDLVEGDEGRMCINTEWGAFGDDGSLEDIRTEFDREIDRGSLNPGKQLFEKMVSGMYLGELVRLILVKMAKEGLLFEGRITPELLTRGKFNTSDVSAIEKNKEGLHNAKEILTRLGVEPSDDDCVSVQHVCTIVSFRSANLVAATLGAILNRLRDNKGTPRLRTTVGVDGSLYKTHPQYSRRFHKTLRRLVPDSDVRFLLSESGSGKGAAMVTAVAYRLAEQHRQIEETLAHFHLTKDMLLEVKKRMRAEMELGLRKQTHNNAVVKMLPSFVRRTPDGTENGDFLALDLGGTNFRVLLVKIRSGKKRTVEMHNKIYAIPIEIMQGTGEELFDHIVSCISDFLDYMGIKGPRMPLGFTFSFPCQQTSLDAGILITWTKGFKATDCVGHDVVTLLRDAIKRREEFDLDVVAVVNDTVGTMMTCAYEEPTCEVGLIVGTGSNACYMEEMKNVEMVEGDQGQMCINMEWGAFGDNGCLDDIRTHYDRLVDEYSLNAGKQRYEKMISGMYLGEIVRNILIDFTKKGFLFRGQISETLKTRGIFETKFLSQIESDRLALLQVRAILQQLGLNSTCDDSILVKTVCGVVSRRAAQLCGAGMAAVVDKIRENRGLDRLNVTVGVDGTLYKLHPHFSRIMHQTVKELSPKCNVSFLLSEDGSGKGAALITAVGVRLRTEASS

HEK293 [1] = experiment: inhibitors of LMP1-driven NF-kB reporter, dose response, cell-based, HEK293, luciferase, cherry-pick (AID 588343); format: functional; conditions: Homo sapiens
[2] = target: Heat shock protein HSP 90-alpha (Homo sapiens, UniProt P07900); format: functional, organism-based
CHO-K1 = experiment: (§1) Counterscreen for antagonists of the orexin 1 receptor (OX1R; HCRTR1): Homogeneous time resolved fluorescence (HTRF)-based cell-based dose response assay to identify antagonists of the parental CHO-K1 cell line. [Related pubchem assays (depositor defined):AID434989, AID435008, AID463079, AID485270, AID492963, AID492964, AID492965, AID493232, AID504699, AID504701]; format: functional; conditions: Cricetulus griseus
[3] = as §1, with “Fluorescence-based” for “Homogeneous time resolved fluorescence (HTRF)-based”, “cell-based high throughput” for “cell-based”, “CHO” for “CHO-K1”; format: functional
[4] = target: T2, Orexin/Hypocretin receptor type 1 (Homo sapiens, UniProt O43613); experiment: Homogeneous Time Resolved Fluorescence (HTRF)-based cell-based high throughput dose response assay for antagonists of the orexin 1 receptor (OX1R; HCRTR1). [Related pubchem assays (depositor defined):AID434989, AID435008, AID463079, AID485270, AID492963, AID492964, AID492965, AID493232, AID504717, AID504718]; format: functional
T2 sequence (O43613 whole entry): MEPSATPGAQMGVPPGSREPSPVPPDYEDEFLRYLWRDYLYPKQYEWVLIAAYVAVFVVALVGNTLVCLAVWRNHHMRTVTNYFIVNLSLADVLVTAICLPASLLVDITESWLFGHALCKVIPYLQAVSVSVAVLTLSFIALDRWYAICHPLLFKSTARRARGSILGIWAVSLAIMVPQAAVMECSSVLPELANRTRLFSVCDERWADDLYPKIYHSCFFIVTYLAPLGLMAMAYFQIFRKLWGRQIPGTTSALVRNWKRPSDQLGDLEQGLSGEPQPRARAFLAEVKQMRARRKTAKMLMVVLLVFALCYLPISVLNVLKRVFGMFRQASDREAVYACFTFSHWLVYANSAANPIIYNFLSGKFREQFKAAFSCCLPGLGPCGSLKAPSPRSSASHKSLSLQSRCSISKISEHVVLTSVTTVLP

[5] = target: T2, Orexin/Hypocretin receptor type 1; experiment: Fluorescence-based cell-based high throughput dose response assay for antagonists of the orexin 1 receptor (OX1R; HCRTR1). [Related pubchem assays (depositor defined):AID434989, AID435008, AID463079, AID485270, AID492963, AID492964, AID492965, AID493232, AID504717, AID504718]; format: functional
Orexin receptor type 2 [6] = target: T3, Orexin receptor type 2 (Homo sapiens, UniProt O43614); experiment: Counterscreen assay for antagonists of the orexin 1 receptor (OX1R; HCRTR1): Fluorescence-based cell-based dose response assay for antagonists of the orexin 2 receptor (OX2R; HCRTR2), run by assay provider.; format: functional
T3 sequence (O43614 whole entry): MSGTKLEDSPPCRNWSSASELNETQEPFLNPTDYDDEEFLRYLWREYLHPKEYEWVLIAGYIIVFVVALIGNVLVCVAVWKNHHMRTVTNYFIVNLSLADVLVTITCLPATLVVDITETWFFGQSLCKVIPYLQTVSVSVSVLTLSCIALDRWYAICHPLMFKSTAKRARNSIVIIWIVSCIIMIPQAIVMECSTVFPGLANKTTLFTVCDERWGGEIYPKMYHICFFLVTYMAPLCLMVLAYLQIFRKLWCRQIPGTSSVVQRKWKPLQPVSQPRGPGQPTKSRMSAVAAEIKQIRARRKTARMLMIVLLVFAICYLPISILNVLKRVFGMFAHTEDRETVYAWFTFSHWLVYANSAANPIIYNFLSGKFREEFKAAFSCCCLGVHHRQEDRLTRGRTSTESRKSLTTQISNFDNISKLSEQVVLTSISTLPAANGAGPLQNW

Orexin receptor type 2 [7] = target: T3, Orexin receptor type 2; experiment: Counterscreen assay for antagonists of the orexin 1 receptor (OX1R; HCRTR1): Homogeneous Time Resolved Fluorescence (HTRF)-based cell-based dose response assay for antagonists of the orexin 2 receptor (OX2R; HCRTR2), run by assay provider.; format: functional
HEK293 [8] = experiment: NOD1 signaling inhibitors, primary screen, cell-based, luminescence, uHTS (AID 1578); format: functional; conditions: Homo sapiens
HEK293 [9] = experiment: cells; format: functional, cell-based; conditions: Homo sapiens
[10] = target: T4, Heat shock factor protein 1 (Mus musculus, UniProt P38532); experiment: inhibition of MG132-induced HSE-luciferase signal, confirmation, cell-based, NIH3T3, luminescence, dose retest (AID 2382); format: functional;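 also: NIH3T3 fibroblasts with HSF1-driven luciferase reporter stressed by proteasome inhibitor MG132; luminescence from HSF1-driven luciferase expression after 8 hours of MG132 stress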
T4 sequence (P38532 whole entry): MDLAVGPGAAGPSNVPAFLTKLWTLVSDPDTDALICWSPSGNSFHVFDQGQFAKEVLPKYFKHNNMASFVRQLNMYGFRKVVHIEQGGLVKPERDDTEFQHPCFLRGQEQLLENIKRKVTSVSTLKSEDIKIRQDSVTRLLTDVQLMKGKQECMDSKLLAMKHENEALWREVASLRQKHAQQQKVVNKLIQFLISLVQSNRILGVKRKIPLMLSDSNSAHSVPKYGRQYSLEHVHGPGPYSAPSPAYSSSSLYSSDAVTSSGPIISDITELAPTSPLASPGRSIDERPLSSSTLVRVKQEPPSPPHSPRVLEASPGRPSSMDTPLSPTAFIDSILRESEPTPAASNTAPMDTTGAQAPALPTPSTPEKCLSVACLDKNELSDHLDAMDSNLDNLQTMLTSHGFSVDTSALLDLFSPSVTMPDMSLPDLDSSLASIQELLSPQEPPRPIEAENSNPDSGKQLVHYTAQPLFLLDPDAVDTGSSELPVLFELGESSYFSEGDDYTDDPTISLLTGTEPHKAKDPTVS

HEK293 [11] = experiment: cells; format: functional, cell-based; conditions: Homo sapiens; remark: listed apart in the source
[12] = target: Nucleotide-binding oligomerization domain-containing protein 2 (Homo sapiens, UniProt Q9HC29); experiment: NOD2 signaling inhibitors, cell-based, luminescence, uHTS, HEK293 (AID 1566); format: functional
Chain of Nucleotide-binding oligomerization domain-containing protein 2 (Q9HC29 whole entry, the tested form may be a part): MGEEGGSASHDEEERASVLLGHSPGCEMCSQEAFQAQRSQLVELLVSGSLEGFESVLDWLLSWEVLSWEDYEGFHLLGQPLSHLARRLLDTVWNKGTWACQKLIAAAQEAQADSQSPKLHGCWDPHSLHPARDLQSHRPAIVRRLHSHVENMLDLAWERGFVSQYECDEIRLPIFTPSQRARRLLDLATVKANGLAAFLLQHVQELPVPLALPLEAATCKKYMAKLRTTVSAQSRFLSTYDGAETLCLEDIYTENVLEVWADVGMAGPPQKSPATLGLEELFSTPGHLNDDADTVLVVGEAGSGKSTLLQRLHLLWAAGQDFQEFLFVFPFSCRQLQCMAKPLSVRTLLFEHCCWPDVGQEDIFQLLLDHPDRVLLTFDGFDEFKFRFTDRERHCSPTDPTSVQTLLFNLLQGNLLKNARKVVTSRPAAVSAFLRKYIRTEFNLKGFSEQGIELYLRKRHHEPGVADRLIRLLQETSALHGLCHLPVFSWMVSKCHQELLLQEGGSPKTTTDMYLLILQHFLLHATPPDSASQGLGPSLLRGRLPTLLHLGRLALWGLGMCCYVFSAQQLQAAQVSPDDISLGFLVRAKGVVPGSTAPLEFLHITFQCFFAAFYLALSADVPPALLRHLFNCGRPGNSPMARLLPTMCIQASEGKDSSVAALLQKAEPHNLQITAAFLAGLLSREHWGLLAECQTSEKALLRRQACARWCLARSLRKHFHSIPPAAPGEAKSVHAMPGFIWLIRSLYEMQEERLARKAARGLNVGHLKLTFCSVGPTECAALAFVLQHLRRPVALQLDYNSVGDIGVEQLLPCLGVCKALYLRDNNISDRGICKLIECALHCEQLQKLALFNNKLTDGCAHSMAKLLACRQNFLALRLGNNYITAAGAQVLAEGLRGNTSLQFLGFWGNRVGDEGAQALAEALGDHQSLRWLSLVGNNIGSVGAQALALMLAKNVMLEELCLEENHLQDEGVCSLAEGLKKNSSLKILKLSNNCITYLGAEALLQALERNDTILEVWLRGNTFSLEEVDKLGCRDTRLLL

HEK293 [13] = experiment: NOD2 signaling inhibitors in MDP-stimulated cells, cell-based, uHTS, luminescence (AID 2001); format: functional; conditions: Homo sapiens
HEK293 [14] = experiment: cells; format: functional, cell-based; conditions: Homo sapiens; remark: listed apart in the source
INS1 = experiment: beta cell apoptosis inhibitors, cytokine rescue, dose response, luminescence, retest (AID 449756); format: functional, cell-based; conditions: Rattus norvegicus;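 also: cell death triggered by IL-1 beta plus TNF-alpha plus IFN-gamma mixture; protective hits raise ATP signal compared with cytokine alone wells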

| Structure (SMILES) | EC50 (Hexokinase HKDC1) | IC50 (Nonstructural protein 1) | EC50 (Hexokinase-1) | AC50 (HEK293 [1]) | AC50 [2] | IC50 (CHO-K1) | IC50 [3] | IC50 [4] | IC50 [5] | IC50 (Orexin receptor type 2 [6]) | IC50 (Orexin receptor type 2 [7]) | EC50 (HEK293 [8]) | IC50 (HEK293 [9]) | EC50 [10] | IC50 (HEK293 [11]) | EC50 [12] | IC50 (HEK293 [13]) | IC50 (HEK293 [14]) | AC50 (INS1) |
| --- | --- | --- | --- | --- | --- | --- | --- | --- | --- | --- | --- | --- | --- | --- | --- | --- | --- | --- | --- |
| CC(=NNC(=S)Nc1cccc(Cl)c1)c1ccccn1 | 0.615 µM (active) | 15.4 µM (active) | > 80 µM (inactive) | 0.341 µM (active) | 16.2 µM (active) | – | – | – | – | – | – | – | – | – | – | – | – | – | – |
| CNc1nc(Nc2ccc(C)c(Cl)c2)c2cnn(C)c2n1 | – | – | – | – | – | > 66.2 µM (inactive) | > 49.8 µM (inactive) | 2.07 µM (active) | 14.4 µM (inactive) | > 88.8 µM (inactive) | > 50 µM (inactive) | – | – | – | – | – | – | – | – |
| CCCOc1ccc(/C=N/NC(=S)Nc2ccccc2[N+](=O)[O-])c(O)c1 | 26.5 µM (inactive) | – | > 80 µM (inactive) | – | – | – | – | – | – | – | – | 11.9 µM (active) | 1.82 µM (active) | 11 µM (active) | > 20 µM (inactive) | 0.78 µM (active) | 0.233 µM (active) | > 20 µM (inactive) | 1.28 µM (active) |
